Results as given in US9771625B2, “Monoamine oxidase inhibitors and methods for treatment and diagnosis of prostate cancer” (UNIVERSITY OF SOUTHERN CALIFORNIA, priority 2011, dated 2017).

Legend:
MAO A = target: T1, MAO A (Homo sapiens, UniProt P21397); assay: MAO A inhibition assay in C4-2B cells with radiolabeled substrate (C-14 serotonin); type: cell-based
T1 construct: This cell line was selected due to its high levels of the expressed MAO-A; endogenous in cells; host or cells: C4-2B human prostate cancer cells
T1 sequence (P21397 1-527): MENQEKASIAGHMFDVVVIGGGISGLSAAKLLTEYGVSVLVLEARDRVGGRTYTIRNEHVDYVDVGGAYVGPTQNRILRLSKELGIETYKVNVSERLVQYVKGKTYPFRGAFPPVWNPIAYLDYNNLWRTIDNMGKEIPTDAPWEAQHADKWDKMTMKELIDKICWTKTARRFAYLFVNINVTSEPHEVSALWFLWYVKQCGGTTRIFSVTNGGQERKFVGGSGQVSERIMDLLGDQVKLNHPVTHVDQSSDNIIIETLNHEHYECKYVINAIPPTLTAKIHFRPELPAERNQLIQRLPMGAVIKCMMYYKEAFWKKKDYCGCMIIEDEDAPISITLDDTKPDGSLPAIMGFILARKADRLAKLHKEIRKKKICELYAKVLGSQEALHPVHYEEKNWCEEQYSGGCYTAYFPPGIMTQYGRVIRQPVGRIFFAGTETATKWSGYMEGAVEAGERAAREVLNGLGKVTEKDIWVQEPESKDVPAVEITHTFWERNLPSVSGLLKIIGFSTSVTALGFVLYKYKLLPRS
Experimental: Compound 10 was pre-incubated with 1×10^6 prostate C4-2B cells at 37° C. for 20 min. Then, MAO A substrate C-14 serotonin was added to the incubation solution for 37° C. 20 min. At the end of the incubation, the reaction product was extracted and the radioactivity was counted. The MAO-A activity was expressed as […] product formed/20 min/mg protein. The activity without the presence of inhibitor, compound 10, was taken as 100%.
In order to test an inhibitory activity of the MHI-clorgyline 10, a standard MAO A inhibition assay was carried out in C4-2B cells using radiolabeled substrates.

[1] = system: C4-2B prostate cancer cells; assay: Laser-scanning confocal NIR imaging of cellular uptake and localization; type: cell-based, human; conditions: C4-2B PCa cells
Text: Moreover, the two dyes also have strong emission at 820-860 nm upon excitation at 750-780 nm, which can be easily detected and visualized by NIR imaging equipment and laser-scanning confocal microscopes. Here, we resorted to the use of Zeiss LSM 510 confocal microscope as the imaging equipment. Although cellular uptake of the conjugate was uncertain, due to the similarity in structure, MHI-clorgyline conjugates were expected to have similar fluorescence properties as the NIR dye itself. Therefore, NIR imaging with laser-scanning confocal microscope was used to examine the cellular uptake of MHI-clorgyline in human prostate epithelial cancer cells (C4-2B). This cell line was selected due to its high levels of the expressed MAO-A.
(§1) An imaging study with the newly synthesized MHI-clorgyline 10 was carried out (FIG. 11).

live cells = assay: Preliminary imaging study of IR-783 dye in live cells; type: cell-based
Experimental: as §1

[2] = system: tumor xenografts and spontaneous tumors in transgenic mice; conditions: cited from earlier work
[3] = system: control and MAO-A-overexpressing PC-3 tumor xenografts; assay: In vivo and ex vivo MHI-148 NIR imaging of PC-3 tumor xenografts; set-up: species or system nude mice
Text: FIG. 19 MAO-A enhanced NIR dye uptake in PC-3 tumor xenografts. (A) Representative in vivo MHI-148 NIR imaging (i.p. injection, 10 nmol/20 g) of nude mice subcutaneously implanted with control (left flank) and MAO-A-overexpressing (right flank) PC-3 cells. Arrows point to tumor xenografts. […] (C) Quantitation of tumor NIR intensity in (A) by determining total emission divided by tumor weight (5 mice). *, p<0.05.
A class of fluorescent heptamethine cyanines with near-infrared (NIR) emission maxima, such as MHI-148 dye, which has been identified recently, are non-toxic and have dual functions as tumor-specific targeting and imaging modalities. These dyes, partially mediated by hypoxia, are specifically retained in cancer but not normal cells, and also in tumor xenografts as well as spontaneous tumors in transgenic mice. […] This would allow the development and validation of novel PCa-seeking MAO-A inhibitors with acquired synergistic tumor-targeting abilities as new agents for PCa therapies with minimal systemic host toxicity.

[4] = system: human prostate cancer cells; assay: Growth of prostate cancer cells in vitro; type: cell-based
Text: (§2) In the present invention, it was unexpectedly discovered that increase of MAO-A activity or expression is correlated with the progression of human prostate cancer. […] This finding establishes MAOs as a target for cancer.

tumor xenografts = assay: Growth of tumor xenografts in vivo
Text: as §2

With `C#CCN(CCCOc1ccc(Cl)cc1Cl)CCCSC(=O)CCCCCN1/C(=C\C=C2/CCCC(/C=C/C3=[N+](CCCCCC(=O)O)c4ccccc4C3(C)C)=C2Cl)C(C)(C)c2ccccc21` [Compound 10] the IC50 (MAO A; 37° C., 20 min pre-incubation, C-14 serotonin substrate) was 21.8 µM, the “MAO A inhibitory activity compared with clorgyline” value (MAO A; data not shown) was “lesser than that of clorgyline itself” and the subcellular localization ([1]; co-staining with mitochondria-specific dye) was “localized in the mitochondria”. For the same molecule, the cellular accumulation ([1]; confocal imaging) was “rapid accumulation”.

For `CC1(C)C(=CC=C2CCCC(C=CC3=[N+](CCCCS(=O)(=O)[O-])c4ccccc4C3(C)C)=C2Cl)N(CCCCS(=O)(=O)[O-])c2ccccc21.[Na+]` [IR-783], the subcellular localization (live cells) is listed as “co-localized in mitochondria” and the “retention in cancer cells versus normal cells” value [2] is listed as “retained in cancer cells but not normal cells”.

For `CC1(C)C(/C=C/C2=C(Cl)C(=C/C=C3/N(CCCCCC(=O)O)c4ccccc4C3(C)C)/CCC2)=[N+](CCCCCC(=O)O)c2ccccc21` [MHI-148], the “NIR dye uptake in tumor xenografts” value ([3]; MAO-A-overexpressing vs control PC-3 xenografts, i.p. injection, 10 nmol/20 g) is listed as “enhanced uptake”, the “ex vivo NIR signal in tumor tissues versus organs” value ([3]; ex vivo NIR imaging, nude mice with PC-3 xenografts) is listed as “Tumor tissues but not organs displayed strong signals” and the “retention in cancer cells versus normal cells” value [2] is listed as “retained in cancer cells but not normal cells”.

In the case of `C#CCN(C)CCCOc1ccc(Cl)cc1Cl` [clorgyline], the “growth of human prostate cancer cells” value [4] is reported as “repressing the growth” and the “growth of tumor xenografts” value (tumor xenografts) is reported as “repressing the growth”.
